Among the test systems are SW-620; SK-OV-3; SN12C; U-251; A549; MDA-MB-231; UO-31; SK-MEL-28; Malme-3M; MCF7; MOLT-4; A498; COLO 205; TK-10; T47D; UACC-62; DU-145; MDA-MB-435; SF-295; HOP-92.
Test in all cases: NCI tumour cell line growth inhibition, 48 h

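Test compounds were applied to cells in 96-well plates for 48 hours at 5 doses. Here, GI50 denotes the concentration required for 50% inhibition of growth.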 Active and inactive are the calls of the source. No stated cut-off is given here; in the data, active = GI50 up to about 1.1 µM and inactive = higher.

Regarding `Cc1nc(O)c2c3c(sc2n1)CCCC3`, the GI50 was > 100 µM (inactive) with SW-620; > 100 µM (inactive) with SK-OV-3; 51.5 µM (inactive) with SN12C; 66.2 µM (inactive) in the assay on U-251; 78.5 µM (inactive) in the assay with A549; > 100 µM (inactive) with MDA-MB-231. Also, the GI50 in the assay on UO-31 is 20.4 µM (inactive); in the assay on SK-MEL-28 it was > 100 µM (inactive); in the assay on Malme-3M it was > 100 µM (inactive); in the assay with MCF7, 41.4 µM (inactive); in the assay with MOLT-4 it was > 100 µM (inactive); in the assay on A498, > 100 µM (inactive). Also, the GI50 in the assay on COLO 205 was > 100 µM (inactive); with TK-10 it was > 100 µM (inactive); in the assay on T47D, > 100 µM (inactive); in the assay on UACC-62 it was 58.2 µM (inactive); in the assay on DU-145, > 100 µM (inactive); in the assay on MDA-MB-435 it was > 100 µM (inactive). Further, the GI50 in the assay on SF-295 and in the assay with HOP-92 was > 100 µM (inactive) each time.
For the molecule `CCOc1ccc2c(ccc(/C=C/c3cc(C)c4cccnc4c3O)[n+]2C)c1`, the GI50 in the assay with SW-620 was 0.459 µM (active); in the assay with SK-OV-3, 1.8 µM (inactive); with SN12C, 0.274 µM (active); with U-251 it was 0.18 µM (active); with A549, 1.33 µM (inactive); in the assay on MDA-MB-231 it was 0.157 µM (active). The GI50 in the assay with UO-31 was 8.09 µM (inactive); in the assay on SK-MEL-28, 0.792 µM (active); in the assay on Malme-3M, 1.94 µM (inactive); in the assay with MCF7, 0.115 µM (active); in the assay with MOLT-4, 0.158 µM (active); in the assay with A498, 1.67 µM (inactive). For the same molecule, the GI50 in the assay with COLO 205 was 0.624 µM (active); in the assay with TK-10, 0.575 µM (active); with T47D, 0.54 µM (active); with UACC-62, 1.53 µM (inactive); in the assay on DU-145, 3.62 µM (inactive); with MDA-MB-435, 0.929 µM (active). The GI50 in the assay with SF-295 is 1.24 µM (inactive); in the assay on HOP-92, 0.881 µM (active).
Turning to `Nc1ccc(C(=O)CC(N)C(=O)O)cc1O` (stereo not given), the GI50 was > 100 µM (inactive) in the assay on SW-620; 31.9 µM (inactive) with SK-OV-3; > 100 µM (inactive) with SN12C; > 100 µM (inactive) with U-251; > 100 µM (inactive) with A549; > 100 µM (inactive) with MDA-MB-231. The GI50 with UO-31, in the assay on SK-MEL-28, in the assay on Malme-3M, in the assay on MCF7, with MOLT-4 and with A498 was > 100 µM (inactive) throughout. The GI50 with COLO 205, with TK-10, in the assay with T47D, in the assay with UACC-62, in the assay on DU-145 and in the assay on MDA-MB-435 was > 100 µM (inactive) throughout. Besides, the GI50 in the assay on SF-295 and in the assay on HOP-92 was > 100 µM (inactive) throughout.
For `O=C1Nc2cccc(Cl)c2/C1=C\c1c(-c2ccccc2)nc2n1CCS2`, the GI50 in the assay with SW-620 was 14.9 µM (inactive); with SK-OV-3 it was 24.4 µM (inactive); in the assay with SN12C, 16 µM (inactive); with U-251 it was 19.6 µM (inactive); with A549, 18.6 µM (inactive); in the assay with MDA-MB-231, 20.7 µM (inactive). Moreover, the GI50 is 19.1 µM (inactive) in the assay with UO-31; 21.2 µM (inactive) with SK-MEL-28; 20.2 µM (inactive) with Malme-3M; 18.4 µM (inactive) in the assay on MCF7; 10.6 µM (inactive) in the assay with MOLT-4; 20.4 µM (inactive) in the assay with A498. The GI50 is 18.8 µM (inactive) in the assay on COLO 205; 13.2 µM (inactive) in the assay on TK-10; 17.5 µM (inactive) in the assay on T47D; 17.9 µM (inactive) in the assay with UACC-62; 19.8 µM (inactive) with DU-145; 18.2 µM (inactive) in the assay on MDA-MB-435. Moreover, the GI50 with SF-295 is 28.7 µM (inactive); with HOP-92 it was 20 µM (inactive).
With `Cc1ccc(S(=O)(=O)Oc2coc(CO)cc2=O)cc1`, the GI50 in the assay with SW-620 was 12.3 µM (inactive); in the assay with SK-OV-3 it was 17.1 µM (inactive); in the assay with SN12C, 12.7 µM (inactive); in the assay on U-251, 9.84 µM (inactive); in the assay with A549 it was 14.8 µM (inactive); in the assay with MDA-MB-231, 18.6 µM (inactive). In addition, the GI50 is 14.1 µM (inactive) in the assay with UO-31; 17.3 µM (inactive) with SK-MEL-28; 16.2 µM (inactive) with Malme-3M; 4.7 µM (inactive) with MCF7; 13.4 µM (inactive) in the assay with MOLT-4; 15.5 µM (inactive) with A498. Further, the GI50 in the assay with COLO 205 is 14.3 µM (inactive); with TK-10, 17.5 µM (inactive); in the assay on T47D, 13.3 µM (inactive); in the assay with UACC-62 it was 11.9 µM (inactive); in the assay with DU-145 it was 12.2 µM (inactive); in the assay with MDA-MB-435, 6.85 µM (inactive). The GI50 in the assay with SF-295 and in the assay with HOP-92 was 16 µM (inactive) throughout.
In the case of `O=CNc1ccccc1OCCOc1ccccc1NC=O`, the GI50 in the assay with SW-620, with SK-OV-3, in the assay with SN12C, in the assay on U-251, with A549 and with MDA-MB-231 was > 100 µM (inactive) throughout. The GI50 in the assay on UO-31, with SK-MEL-28, in the assay on Malme-3M, with MCF7, in the assay on MOLT-4 and in the assay on A498 was > 100 µM (inactive) in each case. In addition, the GI50 with COLO 205, in the assay with TK-10, with T47D, in the assay on UACC-62, in the assay with DU-145 and in the assay on MDA-MB-435 was > 100 µM (inactive) throughout. For the same molecule, the GI50 in the assay on SF-295 and in the assay on HOP-92 was > 100 µM (inactive) throughout.
For `N#Cc1nc(CCC(C(=O)O)N2C(=O)c3ccccc3C2=O)oc1N` (stereo not given), the GI50 in the assay with SW-620 was > 100 µM (inactive); in the assay with SK-OV-3, > 100 µM (inactive); with SN12C, > 100 µM (inactive); in the assay with U-251, > 100 µM (inactive); with A549, 41.7 µM (inactive); in the assay with MDA-MB-231, > 100 µM (inactive). Also, the GI50 in the assay with UO-31, in the assay with SK-MEL-28, with Malme-3M, in the assay with MCF7, in the assay on MOLT-4 and with A498 was > 100 µM (inactive) throughout. For the same molecule, the GI50 in the assay with COLO 205, in the assay with TK-10, in the assay with T47D, with UACC-62, in the assay on DU-145 and in the assay with MDA-MB-435 was > 100 µM (inactive) throughout. Besides, the GI50 in the assay on SF-295 and with HOP-92 was > 100 µM (inactive) in each case.
`CCCCCCCCCCCC1=C(O)C(=O)C(CC2=C(O)C(=O)C(CCCCCCCCCCC)=C(O)C2=O)=C(O)C1=O`: the GI50 in the assay with SW-620 was > 100 µM (inactive); with SK-OV-3, 50.9 µM (inactive); in the assay with SN12C it was > 100 µM (inactive); with U-251, 43.5 µM (inactive); in the assay with A549 it was > 100 µM (inactive); with MDA-MB-231, 28.6 µM (inactive). For the same molecule, the GI50 with UO-31 was > 100 µM (inactive); in the assay on SK-MEL-28 it was > 100 µM (inactive); in the assay on Malme-3M, 44 µM (inactive); in the assay with MCF7, > 100 µM (inactive); with MOLT-4, > 100 µM (inactive); with A498 it was 52.2 µM (inactive). The GI50 with COLO 205 was > 100 µM (inactive); in the assay on TK-10 it was 46.6 µM (inactive); in the assay on T47D it was > 100 µM (inactive); in the assay with UACC-62, > 100 µM (inactive); with DU-145 it was > 100 µM (inactive); in the assay on MDA-MB-435, > 100 µM (inactive). Besides, the GI50 is 35.2 µM (inactive) in the assay on SF-295 and 16.3 µM (inactive) in the assay on HOP-92.
`O=C(O)CCO/N=C1/C(=C2/C(=O)Nc3ccccc32)Nc2ccccc21`: the GI50 in the assay with SW-620 is 29.7 µM (inactive); with SK-OV-3, 2.98 µM (inactive); with SN12C, 23.7 µM (inactive); in the assay with U-251, 30.3 µM (inactive); in the assay on A549, 22.5 µM (inactive); in the assay with MDA-MB-231, 37.4 µM (inactive). For the same molecule, the GI50 is 12 µM (inactive) with UO-31; 33.3 µM (inactive) with SK-MEL-28; 54.5 µM (inactive) with Malme-3M; 23.3 µM (inactive) in the assay with MCF7; 17.1 µM (inactive) with MOLT-4; 5.6 µM (inactive) with A498. Also, the GI50 with COLO 205 is 18.2 µM (inactive); in the assay with TK-10, 32.4 µM (inactive); in the assay with T47D, 13.3 µM (inactive); in the assay on UACC-62, 14.7 µM (inactive); with DU-145, 17.2 µM (inactive); in the assay on MDA-MB-435 it was 29.6 µM (inactive). Also, the GI50 is 35.1 µM (inactive) with SF-295 and 36.1 µM (inactive) in the assay on HOP-92.
Take `COc1ccc2nc3ccccc3c(NCCCCN(CCCl)CCCl)c2c1`: the GI50 in the assay on SW-620 is 0.0188 µM (active); in the assay on SK-OV-3, 1.22 µM (inactive); in the assay on SN12C, 0.0843 µM (active); with U-251, 0.0752 µM (active); with A549, 0.162 µM (active); with MDA-MB-231, 0.7 µM (active). Besides, the GI50 is 0.443 µM (active) in the assay with UO-31; 0.752 µM (active) with SK-MEL-28; 0.112 µM (active) in the assay with Malme-3M; 0.202 µM (active) in the assay on MCF7; 0.01 µM (active) with MOLT-4; 0.109 µM (active) in the assay on A498. Besides, the GI50 was 0.368 µM (active) in the assay on COLO 205; 1.17 µM (inactive) with TK-10; 1.26 µM (inactive) with T47D; 0.245 µM (active) in the assay on UACC-62; 0.933 µM (active) in the assay on DU-145; 0.323 µM (active) in the assay with MDA-MB-435. The GI50 in the assay with SF-295 was 0.0863 µM (active); in the assay with HOP-92, 0.527 µM (active).

The values above are taken from ChEMBL document CHEMBL1201862, “PubChem BioAssay data set” (2004).
